# In ChEMBL document CHEMBL1212702:
# Tested on: MCF7
# Assay: Activity at estrogen receptor expressed in human MCF7 cells assessed as increase in receptor-mediated transcription by ERE-luciferase reporter gene assay relative to estradiol
# Assay type: cell-based
# Parameters: concentration or dose not given beside the values
row,SMILES,Activity [%]
1,Cn1c(N)nc2ncc(-c3ccccc3)cc21,< 50
2,Oc1ccc(-c2c(-c3ccccc3)nn3c(C(F)(F)F)cc(C(F)(F)F)nc23)cc1,10
3,COC(=O)C1=C(C(=O)OC)[C@@H]2O[C@H]1C(c1ccc(O)cc1)=C2c1ccc(O)cc1,50
4,CCOC(=O)[C@@H]1[C@H](C(=O)OCC)[C@@H]2O[C@H]1C(c1ccc(O)cc1)=C2c1ccc(O)cc1,10
5,Oc1ccc(-c2n[nH]c3c(O)cccc23)c(O)c1,< 50
